Reference: patent US9845482B2, “Compositions and methods for enhancing bioenergetic status in female germ cells” (The General Hospital Corporation, priority 2011, dated 2017)

How the values were obtained:
Assay type in all cases: in vivo
[1] = tested on: MII oocytes of aged female mice (C57BL/6); experiment: Dietary supplementation of aged female mice: spindle abnormalities and chromosomal misalignment in MII oocytes; details: for chromosomal misalignment in MII oocytes (change) / percentage of spindle abnormalities in MII oocytes (change): compared to Hist 12 M; for chromosomal misalignment, present in % of oocytes / spindle abnormalities, present in % of oocytes: diet for 3 months, apigenin 0.5 g/kg, luteolin 0.5 g/kg, SRT-1720 2 g/kg
Experimental: Confocal analysis of α-tubulin and DNA distribution were examined. Superovulated oocytes were denuded of cumulus cells, briefly incubated in Acidified Tyrode's Solution (Irvine Scientific, Santa Ana, Calif., USA) to soften the zona pellucida, and immunostained using mouse anti-α-tubulin antibody (Sigma Aldrich Corporation, St. Louis, Mo., USA) followed by goat anti-mouse IgG conjugated with Alexa Fluor-488 (Life Technologies, Carlsbad, Calif.). Oocytes were mounted using Vectashield containing propidium iodide (PI; Vector Laboratories) and analyzed by confocal microscopy.
(§1) Female mice (8 months old, strain C57BL/6) were maintained on a 12:12 light dark cycle and provided ad-libitum access to water and food. Conditions within rooms were maintained at 21°±1° C. with 50%±20% relative humidity. Mice were placed on the experimental diets at 8.5 months of age and were maintained for 3 months on the diets. All diets were custom made, ordered from Research Diets: OpenStandard Diet (20 kcal % Protein, 15 kcal % Fat and 65 kcal % Carbohydrate) and the experimental groups consisted of regular OpenStandard Diet, OpenStandard Diet+Apigenin at 0.5 g/kg of body weight, OpenStandard Diet+Luteolin at 0.5 g/kg, and OpenStandard Diet+SRT-1720 at 2 g/kg. Food intake was measured weekly and average weight gain was assessed every two weeks. Each experimental group consisted of 12 randomly allocated mice. When mice were euthanized an additional group of 3-month old C57BL/6 females (3 M) were used as positive controls. In all groups, oocyte numbers were assessed following hormonal stimulation for superovulation.
(§2) Methods for determining spindle abnormalities and chromosomal misalignment are described above in Example 8. Abnormal mitochondrial distribution was determined to be present in 16.13% of oocytes from 3 M mice, 46% of oocytes from Hist 12 M mice, 7.7% of oocytes following supplementation with apigenenin, 12% of oocytes following supplementation with luteolin and 6.9% of oocytes following supplementation with SRT-1720. Spindle abnormalities were determined to be present in 18.3% of oocytes in 3 M mice, 60% of oocytes in Hist 12 M mice, 32% of oocytes following supplementation with apigenenin, 32% of oocytes following supplementation with luteolin and 32.8% of oocytes following supplementation with SRT-1720. Chromosomal misalignment was determined to be present 18.3% of oocytes in 3 M mice, 62% of oocytes in Hist 12 M mice, 44% of oocytes from mice supplemented with apigenenin, 40% of oocytes following supplementation with luteolin and 40.9% of oocytes following supplementation with SRT-1720.

[2] = tested on: aged female mice (C57BL/6); experiment: Dietary supplementation of aged female mice: oocyte yield, maturation and quality after superovulation; details: for percentage of mature, metaphase II oocytes retrieved following superovulation / quality of oocytes in aged mice: compared to age appropriate controls (Hist 12 M); for oocyte yield: diet for 3 months from 8.5 months of age, apigenin 0.5 g/kg, luteolin 0.5 g/kg, SRT-1720 2 g/kg, superovulation
Excerpt: Yield, maturational status and post-fertilization developmental competency of oocytes obtained from 12-month-old (aged) female mice returned to an ad-libitum (AL) diet for 1 month following 7.5 months of dietary CR (CR-AL-fed) initiated in a stepwise fashion at 3.5 months of age were first evaluated. This protocol was based on prior work showing that female mice maintained on CR during adulthood continue to breed and deliver offspring into advanced ages after their return to an AL diet (Selesniemi et al. 2008 Aging Cell 7:622-629). Mice were superovulated by injection of pregnant mare serum gonadotropin (PMSG, 10 IU; Sigma Aldrich Corporation, St. Louis, Mo., USA) followed by human chorionic gonadotropin (hCG, 10 IU; Sigma Aldrich Corporation, St. Louis, Mo., USA) 46-48 hours later. Oocytes were collected from oviducts 15-16 hours after hCG injection, denuded of cumulus cells using hyaluronidase (Irvine Scientific, Santa Ana, Calif., USA), washed with human tubal fluid (HTF; Irvine Scientific, Santa Ana, Calif., USA) supplemented with BSA (fraction V, fatty acid-free; Sigma Aldrich Corporation, St. Louis, Mo., USA), and classified as MII (first polar body in perivitelline space), maturation arrested (germinal vesicle breakdown with no polar body extrusion, or germinal vesicle intact), or degenerated.
as §1
Because of the extremely low yield of oocytes from the aged control females, historical data for oocyte yield from 12-month-old C57BL/6 females (referred to as “Hist 12 M”; from Selesniemi et al., Proc Natl Acad Sci USA. 2011 July 26; 108(30): 12319-12324) can be used as an additional reference point for an aged control group.
In FIG. 45A, the percentage of oocytes assessed at metaphase II is shown. In FIG. 45B, the percentage of oocytes arrested at the germinal vesicle (immature) stage is shown. In FIG. 45C, the percentage of atretic (dead) oocytes is shown.

[3] = tested on: oocytes of aged female mice (C57BL/6); experiment: Dietary supplementation of aged female mice: mitochondrial distribution in oocytes; details: for percentage of oocytes exhibiting abnormal mitochondrial clustering (change): compared to Hist 12 M; for abnormal mitochondrial distribution, present in % of oocytes: diet for 3 months, apigenin 0.5 g/kg, luteolin 0.5 g/kg, SRT-1720 2 g/kg
Experimental: Whether mitochondrial aggregation, which has been linked to the decline in oocyte quality with advancing age (Tarín et al. Biol Reprod 2001 65:141-150), was affected by caloric intake was assessed. Oocytes were denuded of cumulus cells, incubated in MitoTracker Red CMRox (Life Technologies), and processed for microscopic analysis. Levels of ATP in individual MII oocytes were determined using a commercially available bioluminescent assay kit under the manufacturer's specifications (Sigma Aldrich Corporation, St. Louis, Mo., USA).
as §1, §2

| Compound | chromosomal misalignment in MII oocytes (change) [1] | percentage of spindle abnormalities in MII oocytes (change) [1] | chromosomal misalignment, present in % of oocytes [1] [%] | spindle abnormalities, present in % of oocytes [1] [%] | percentage of mature, metaphase II oocytes retrieved following superovulation [2] | quality of oocytes in aged mice [2] | oocyte yield [2] | percentage of oocytes exhibiting abnormal mitochondrial clustering (change) [3] | abnormal mitochondrial distribution, present in % of oocytes [3] [%] |
| --- | --- | --- | --- | --- | --- | --- | --- | --- | --- |
| O=c1cc(-c2ccc(O)cc2)oc2cc(O)cc(O)c12 [apigenin, 5,7-Dihydroxy-2-(4-hydroxyphenyl)-4H-1-benzopyran-4-one] | reduced chromosomal misalignment | reduced percentage of spindle abnormalities | 44 | 32 | do not affect | improve the quality of oocytes | increase oocyte yield | reduced | 7.7 |
| O=c1cc(-c2ccc(O)c(O)c2)oc2cc(O)cc(O)c12 [luteolin, 2-(3,4-Dihydroxyphenyl)-5,7-dihydroxy-4-chromenone] | reduced chromosomal misalignment | reduced percentage of spindle abnormalities | 40 | 32 | do not affect | improve the quality of oocytes | increase oocyte yield | reduced | 12 |
| O=C(Nc1ccccc1-c1cn2c(CN3CCNCC3)csc2n1)c1cnc2ccccc2n1 [SRT-1720, N-[2[3-(piperazin-1-ylmethyl)imidazo[2,1-b][1,3]thiazol-6-yl]phenyl]quinoxaline-2-carboxamide] | reduced chromosomal misalignment | reduced percentage of spindle abnormalities | 40.9 | 32.8 | do not affect | improve the quality of oocytes | increase oocyte yield | reduced | 6.9 |
